# Experimental data: patent US20250314644A1, “METHODS COMPRISING DETECTION OF ADP-HEPTOSE” (CHILDREN'S HOSPITAL MEDICAL CENTER, priority 2023, published 2025)
# What was measured:
# [1] = system: Dnmt3a^KO; Alpk1^KO cells; test: RNA-sequencing of HSPCs treated in vitro with ADP-heptose or H2O for 90 minutes; format: cell-based, mouse; conditions: vs H2O
# WT HSCs = test: ADP-heptose treatment of low-dose irradiated chimeric mice: donor HSC number and engraftment; format: in vivo, mouse; conditions: ADP-heptose 0.5 mg/kg for 2 weeks
# From the text: To model pre-leukemic clonal hematopoiesis, chimeric mice were generated as aas follows. Briefly, mixture of 1×10^6 whole bone marrow cells (WBM) were obtained from Poly (I:C) treated wild-type (Dnmt3a^+/+; MxCre^+, called Dnmt3a^WT) or mutant mice (Dnmt3a^f/f; MxCre^+, called Dnmt3a^KO) or double mutant mice (Dnmt3a^f/f; MxCre^+; Alpk1^KO, called Dnmt3a^KO; Alpk1^KO) (CD45.2^+), and transplanted into low-dose (2.5 Gy) irradiated recipient mice (CD45.1^+; 6-10 weeks of age). 8 weeks post-transplant, chimeric mice were treated with either water (H2O) or DSS (2.5%) for 1 week, and allowed to recover for 1 more week on water after which flow cytometry was performed on BM. In separate experiment, chimeric mice were pre-treated with broad spectrum antibiotics (ABX) for 4 weeks, and then subjected to DSS for 1 week after which flow cytometry performed on BM. In a separate set of experiment, chimeric mice were treated with either H2O or ADP-heptose (0.5 mg/kg) for 2 weeks, and flow cytometry performed after 2 more weeks on BM. In all the experiments, secondary transplantation was performed by purifying donor HSCs (CD45.2^+Lin^−Sca-1^+c-Kit^+Flk2^−CD150^+CD48^−) and transplanting 100 HSCs with 200,000 helper WBM cells (CD45.1+) into lethally irradiated (8 Gy) recipient mice (CD45.1^+), and donor chimerism in PB examined by flow cytometry.
structure (smiles),measurement,setting,value
"Nc1ncnc2c1ncn2[C@@H]1O[C@H](COP(=O)(O)OP(=O)(O)O[C@@H]2O[C@H]([C@H](O)CO)[C@@H](O)[C@H](O)[C@@H]2O)[C@@H](O)[C@H]1O [ADP-heptose, ADP-D-glycero-β-D-manno-heptose]",logFC 7fp418,[1],−0.871
same,logFC 1110019D14Rik,[1],−0.854
same,logFC 1700037C18Rik,[1],0.829
same,logFC 2810408A11Rik,[1],−0.812
same,logFC 4930451G09Rik,[1],0.8284
same,logFC 4933407K13Rik,[1],−0.692
same,logFC 5031425F14Rik,[1],0.715
same,logFC 9330182L06Rik,[1],−1.241
same,logFC A430105I19Rik,[1],1.602
same,logFC A930013F10Rik,[1],0.5873
same,logFC AI607873,[1],0.7333
same,logFC Abcb4,[1],0.7782
same,logFC Ambp,[1],0.8742
same,logFC Aqp1,[1],0.6005
same,logFC Arg1,[1],1.214
same,logFC Azin2,[1],0.7217
same,logFC BC100530,[1],−0.982
same,logFC Bambi-ps1,[1],−0.651
same,logFC Caprin2,[1],−0.787
same,logFC Ces1d,[1],−0.735
same,logFC Cgref1,[1],1.029
same,logFC Ctsf,[1],−0.836
same,logFC Ctsk,[1],−0.954
same,logFC D630023F18Rik,[1],−0.819
same,logFC Epha7,[1],−0.73
same,logFC Erdr1,[1],−1.542
same,logFC Foxd4,[1],−0.677
same,logFC Gas6,[1],−0.682
same,logFC Gbp9,[1],1.092
same,logFC Gm4285,[1],−1.087
same,logFC Gm5069,[1],−0.82
same,logFC Gm15694,[1],0.9249
same,logFC Gm16023,[1],0.8494
same,logFC Gm21057,[1],−1.133
same,logFC Hist1h1e,[1],−0.799
same,logFC Hist1h2be,[1],−1.019
same,logFC Hist1h4h,[1],−1.162
same,logFC Hmga1,[1],−0.621
same,logFC Irf7,[1],0.6473
same,logFC Isg15,[1],0.6427
same,logFC Kif1a,[1],−0.954
same,logFC Kif9,[1],1.387
same,logFC Lars2,[1],−1.194
same,logFC Lrrc51,[1],1.737
same,logFC Ltc4s,[1],0.978
same,logFC Ly6i,[1],0.764
same,logFC Nefh,[1],0.6222
same,logFC Nr1h3,[1],−0.655
same,logFC Oas1g,[1],0.6168
same,logFC Oas2,[1],0.8787
same,logFC Oas3,[1],0.6718
same,logFC Oasl1,[1],0.7357
same,logFC Oasl2,[1],0.9665
same,logFC Paqr3,[1],−0.758
same,logFC Pcsk9,[1],−1.15
same,logFC Rhcg,[1],1.146
same,logFC Rn45s,[1],−1.533
same,logFC Rsad2,[1],0.9464
same,logFC Rtp4,[1],1.172
same,logFC Sdhaf3,[1],−0.856
same,logFC Sfxn4,[1],−1.009
same,logFC Slfn5,[1],1.078
same,logFC Stac3,[1],0.7901
same,logFC Stbd1,[1],0.9881
same,logFC Stxbp3-ps,[1],−0.814
same,logFC Syp,[1],0.7928
same,logFC Tagln,[1],1.205
same,logFC Tchh,[1],1.26
same,logFC Tle6,[1],−0.734
same,logFC Usp18,[1],0.7247
same,logFC Xaf1,[1],0.6469
same,logFC Zbp1,[1],0.6712
same,logFC Zdhhc2,[1],0.7176
same,logFC Zdhhc15,[1],0.9343
same,logFC Zfp54,[1],−0.829
same,WT HSCs numbers and engraftment in recipient mice,WT HSCs,did not affect
